Experimental data: patent US5310729A, “Interferon-related polypeptides as CR2 ligands and their use for modulating immune cell functions” (California Institute of Biological Research, priority 1990, dated 1994)
Ends that are not written are not given here.

How the values were obtained:
CR2 = target: T1, CR2 (Homo sapiens, UniProt P20023); assay: Inhibition of CR2 binding to rIFNα by competing polypeptides; conditions: competing polypeptide at 100ug/ml; rIFNα solid phase, CR2 liquid phase
T1 construct: CR2 is isolated from Raji cells (ATTC CCL 86); endogenous in cells; host or cells: Raji cells (ATCC CCL 86)
T1 sequence (P20023 21-1033): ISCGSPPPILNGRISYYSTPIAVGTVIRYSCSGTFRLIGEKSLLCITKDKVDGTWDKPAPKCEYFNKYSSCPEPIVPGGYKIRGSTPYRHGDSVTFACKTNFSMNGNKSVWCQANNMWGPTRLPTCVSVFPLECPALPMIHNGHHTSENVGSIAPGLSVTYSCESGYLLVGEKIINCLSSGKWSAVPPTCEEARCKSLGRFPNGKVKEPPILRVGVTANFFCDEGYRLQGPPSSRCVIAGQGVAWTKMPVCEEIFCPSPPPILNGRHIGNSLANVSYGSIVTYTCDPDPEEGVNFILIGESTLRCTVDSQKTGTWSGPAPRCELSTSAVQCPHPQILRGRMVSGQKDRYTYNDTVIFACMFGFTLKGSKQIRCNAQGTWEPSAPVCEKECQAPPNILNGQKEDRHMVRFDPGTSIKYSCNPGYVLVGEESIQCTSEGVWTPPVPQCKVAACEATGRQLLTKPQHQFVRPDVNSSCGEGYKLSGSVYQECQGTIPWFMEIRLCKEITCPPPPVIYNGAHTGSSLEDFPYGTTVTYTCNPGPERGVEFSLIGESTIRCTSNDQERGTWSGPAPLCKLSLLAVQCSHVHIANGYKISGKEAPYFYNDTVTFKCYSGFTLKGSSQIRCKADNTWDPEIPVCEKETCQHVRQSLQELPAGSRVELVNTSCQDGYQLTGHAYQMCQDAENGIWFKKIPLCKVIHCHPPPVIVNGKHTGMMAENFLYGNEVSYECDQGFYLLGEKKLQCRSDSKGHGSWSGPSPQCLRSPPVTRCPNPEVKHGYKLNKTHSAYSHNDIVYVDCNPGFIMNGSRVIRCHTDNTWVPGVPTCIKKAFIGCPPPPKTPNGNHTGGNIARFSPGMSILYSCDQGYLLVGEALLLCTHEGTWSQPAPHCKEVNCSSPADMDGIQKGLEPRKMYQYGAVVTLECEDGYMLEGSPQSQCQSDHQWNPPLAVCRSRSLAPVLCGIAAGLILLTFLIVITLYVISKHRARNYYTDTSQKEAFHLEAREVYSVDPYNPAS
Protocol: A binding reaction admixture containing rIFNα in the solid phase and CR2 in the liquid phase was prepared as described in Example 3c except that a competing CR2 ligand shown in Table 6 was also included in the admixture at a concentration of 100ug/ml. Thereafter, the binding assay was conducted as described in Example 3c to measure the amount of CR2 specifically bound to rIFNα.

[1] = target: T2, native CR2 present on Raji cells (Homo sapiens, UniProt P20023); assay: Inhibition of Zymosan-C3 rosette formation in Raji cells; type: cell-based; conditions: 10^5 Raji cells; zero to 200 μg tested, amount for the value not stated
T2 construct: native CR2 present on Raji cells; endogenous in cells; host or cells: Raji cells
T2 sequence (P20023 21-1033): T1 sequence (P20023 21-1033)
Protocol: Fresh blood was collected from a healthy donor, maintained at room temperature for 2 hours, centrifuged at 2000×g for about 10 min and the resulting supernatant collected. Five mg of Zymosan A particles (Sigma Chemical Co., St. Louis, Mo.) were boiled for 30 min in 20 ml of 150 mM NaCl and washed three times in phosphate-buffered saline (PBS) to form activated particles. One mg of activated particles was admixed with 0.5 ml of the collected blood supernatant, the admixture was maintained at 37° C. for 30 minutes, and then the particles were washed 3 times in PBS. The washed particles were re-suspended in PBS at a concentration of 0.5 mg/ml to form a C3-coated Zymosan composition.
Cultures containing 10^5 Raji cells were admixed with 100 microliters (μl ) of culture medium containing varying amounts (zero to 200 μg) of C3 or IFNαA derived polypeptides (p7 and p2 prepared in Example 1) or rIFNα prepared in Example 3b and the admixture maintained at 37° C. for 30 minutes to allow the CR2 ligand polypeptides to bind any CR2 receptor present on the Raji cells. Thereafter, 50 μl of the C3-coated Zymosan composition were added to each cell culture. […] More than 3 rosettes per cell were counted as C3 specific binding. Inhibition is expressed as the percent decrease in bound rosettes when comparing binding in the presence or absence of admixed polypeptide.

rIFNα = conditions: BSA added to the binding reaction admixture in place of CR2
Protocol: Various amounts of affinity-purified recombinant IFNα(rIFNα) prepared in Example 3b was added to the wells of Falcon EIA plates in 50 μl of coupling buffer (100 mM NaHC03, pH 9.3) and maintained for 2 hours at 37° C. to allow the IFNα to absorb onto the walls of the wells. Subsequently, the wells were washed by 3-fold immersion in PBS containing Tween 20 at 0.05% (referred to as PBST) and then PBST was added to the wells and the wells were maintained for 1 hour at 37° C. as a saturation step. After the wash and saturation steps, twice-affinity-purified CR2, prepared as described in Example 2, was added to each well in about 50 ul of PBST to form a binding reaction admixture containing 50 nanograms (ng) the amount of CR2 per 50 ul. The admixture was maintained for 2 hours at 37° C. to allow the added CR2 in the liquid phase to specifically bind with the rIFNα present immobilized in the solid phase on the walls of the wells. The wells were then washed with PBST to remove unbound CR2. […] The formation of p-nitrophenol was determined by measuring optical absorbance at 405 nm in a Titertek ELISA reader (Titertek Multiskan MCC/340, Metea, Va.).

| Substance | inhibition at 100 µg/mL (CR2) [%] | Percent Inhibition of Zymosan-C3 Rosette Formation in Raji Cells [1] [%] | Binding to solid-phase rIFNα (in words) (rIFNα) |
| --- | --- | --- | --- |
| QLNNLEACV [p4, QLNNLEACV] | 45 | – | – |
| QLNDLEACV [p2, QLNDLEACV] | 48 | 55 | – |
| bovine serum albumin [BSA] | – | – | no dose dependent binding |

Second part, the substance after the results:

| inhibition at 100 µg/mL (CR2) [%] | Percent Inhibition of Zymosan-C3 Rosette Formation in Raji Cells [1] [%] | Binding to solid-phase rIFNα (in words) (rIFNα) | Substance |
| --- | --- | --- | --- |
| 50 | 77 | – | QLYNVEATS [p7, QLYNVEATS] |
| 0 | – | – | SPGRGD [p10, SPGRGD] |
| 0 | – | – | QLNDMEACV [p6, QLNDMEACV] |
